According to patent US20230049952A1, “METHODS AND COMPOUNDS FOR RESTORING MUTANT P53 FUNCTION” (PMV Pharmaceuticals, Inc., priority 2020, published 2023):

System: NF-κB signaling pathway in MT373 tumors
Assay: MT373 syngeneic sarcoma model: mouse NF-κB signaling pathway profiling panel
Type: in vivo

## CCn1c(C#CCNc2ccccc2)cc2cc(CNC3CCN(C)CC3)ccc21 [Compound 1, 1-Anilino-3-{1-ethyl-5-[(1-methyl-4-piperidylamino)methyl]-1H-indol-2-yl}-2-propyne]
150 mg/kg BIDx1, 24 h
  Agt fold increase over or percent reduction vs vehicle control: 8.18 ± 30.61 fold or %
  Akt1 fold increase over or percent reduction vs vehicle control: 17.84 ± 6.63 fold or %
  Atf1 fold increase over or percent reduction vs vehicle control: 42.27 ± 2.47 fold or %
  Atf2 fold increase over or percent reduction vs vehicle control: 24.19 ± 2.49 fold or %
  Bcl2a1a fold increase over or percent reduction vs vehicle control: 39.52 ± 5.46 fold or %
  Bcl2l1 fold increase over or percent reduction vs vehicle control: 1.43 ± 0.11 fold or %
  Bcl3 fold increase over or percent reduction vs vehicle control: 1.29 ± 0.31 fold or %
  Bcl10 fold increase over or percent reduction vs vehicle control: 38.94 ± 3.05 fold or %
  Birc3 fold increase over or percent reduction vs vehicle control: 1.03 ± 0.07 fold or %
  Card10 fold increase over or percent reduction vs vehicle control: 1.32 ± 0.33 fold or %
  Card11 fold increase over or percent reduction vs vehicle control: 1.14 ± 0.14 fold or %
  Casp1 fold increase over or percent reduction vs vehicle control: 14.78 ± 4.65 fold or %
  Casp8 fold increase over or percent reduction vs vehicle control: 9.24 ± 3.65 fold or %
  Ccl2 fold increase over or percent reduction vs vehicle control: 57.69 ± 14.13 fold or %
  Ccl5 fold increase over or percent reduction vs vehicle control: 21.82 ± 7.86 fold or %
  Cd27 fold increase over or percent reduction vs vehicle control: 1.11 ± 0.11 fold or %
  Cd40 fold increase over or percent reduction vs vehicle control: 30.05 ± 5.34 fold or %
  Cflar fold increase over or percent reduction vs vehicle control: 1.01 ± 0.08 fold or %
  Chuk fold increase over or percent reduction vs vehicle control: 1.03 ± 0.07 fold or %
  Crebbp fold increase over or percent reduction vs vehicle control: 1.07 ± 0.06 fold or %
  Csf1 fold increase over or percent reduction vs vehicle control: 14.27 ± 12.28 fold or %
  Csf2 fold increase over or percent reduction vs vehicle control: 61.29 ± 2.87 fold or %
  Csf3 fold increase over or percent reduction vs vehicle control: 27.25 ± 12.00 fold or %
  Egfr fold increase over or percent reduction vs vehicle control: 28.45 ± 5.44 fold or %
  Egr1 fold increase over or percent reduction vs vehicle control: 37.93 ± 8.71 fold or %
  Eif2ak2 fold increase over or percent reduction vs vehicle control: 1.05 ± 0.10 fold or %
  Elk1 fold increase over or percent reduction vs vehicle control: 12.50 ± 9.71 fold or %
  F2r fold increase over or percent reduction vs vehicle control: 40.30 ± 2.19 fold or %
  Fadd fold increase over or percent reduction vs vehicle control: 5.03 ± 3.48 fold or %
  Fasl fold increase over or percent reduction vs vehicle control: 31.85 ± 3.66 fold or %
  Fos fold increase over or percent reduction vs vehicle control: 12.09 ± 14.97 fold or %
  Hmox1 fold increase over or percent reduction vs vehicle control: 13.99 ± 4.70 fold or %
  Icam1 fold increase over or percent reduction vs vehicle control: 1.20 ± 0.24 fold or %
  Ifng fold increase over or percent reduction vs vehicle control: 35.82 ± 11.11 fold or %
  Ikbkb fold increase over or percent reduction vs vehicle control: 1.13 ± 0.20 fold or %
  Ikbke fold increase over or percent reduction vs vehicle control: 1.48 ± 0.37 fold or %
  Ikbkg fold increase over or percent reduction vs vehicle control: 1.07 ± 0.09 fold or %
  Il1a fold increase over or percent reduction vs vehicle control: 13.50 ± 23.10 fold or %
  Il1b fold increase over or percent reduction vs vehicle control: 63.25 ± 18.78 fold or %
  Il1r1 fold increase over or percent reduction vs vehicle control: 31.14 ± 6.16 fold or %
  Il10 fold increase over or percent reduction vs vehicle control: 1.52 ± 0.15 fold or %
  Irak1 fold increase over or percent reduction vs vehicle control: 1.93 ± 9.47 fold or %
  Irak2 fold increase over or percent reduction vs vehicle control: 24.86 ± 5.53 fold or %
  Irf1 fold increase over or percent reduction vs vehicle control: 4.44 ± 20.95 fold or %
  Jun fold increase over or percent reduction vs vehicle control: 29.31 ± 10.13 fold or %
  Lta fold increase over or percent reduction vs vehicle control: 12.59 ± 29.28 fold or %
  Ltbr fold increase over or percent reduction vs vehicle control: 11.61 ± 7.41 fold or %
  Map3k1 fold increase over or percent reduction vs vehicle control: 1.40 ± 0.14 fold or %
  Mapk3 fold increase over or percent reduction vs vehicle control: 10.05 ± 3.02 fold or %
  Myd88 fold increase over or percent reduction vs vehicle control: 1.33 ± 0.11 fold or %
  Nfkb1 fold increase over or percent reduction vs vehicle control: 1.39 ± 12.08 fold or %
  Nfkb2 fold increase over or percent reduction vs vehicle control: 1.01 ± 0.29 fold or %
  Nfkbia fold increase over or percent reduction vs vehicle control: 3.07 ± 2.68 fold or %
  Nod1 fold increase over or percent reduction vs vehicle control: 1.24 ± 0.24 fold or %
  Raf1 fold increase over or percent reduction vs vehicle control: 11.54 ± 3.56 fold or %
  Rel fold increase over or percent reduction vs vehicle control: 1.09 ± 0.06 fold or %
  Rela fold increase over or percent reduction vs vehicle control: 1.02 ± 0.07 fold or %
  Relb fold increase over or percent reduction vs vehicle control: 1.10 ± 0.14 fold or %
  Ripk1 fold increase over or percent reduction vs vehicle control: 1.25 ± 0.04 fold or %
  Ripk2 fold increase over or percent reduction vs vehicle control: 27.80 ± 7.83 fold or %
  Slc20a1 fold increase over or percent reduction vs vehicle control: 29.02 ± 4.69 fold or %
  Smad3 fold increase over or percent reduction vs vehicle control: 4.92 ± 19.78 fold or %
  Stat1 fold increase over or percent reduction vs vehicle control: 1.17 ± 0.19 fold or %
  Tbk1 fold increase over or percent reduction vs vehicle control: 6.71 ± 4.73 fold or %
  Tlr1 fold increase over or percent reduction vs vehicle control: 1.17 ± 0.16 fold or %
  Tlr2 fold increase over or percent reduction vs vehicle control: 4.13 ± 15.48 fold or %
  Tlr3 fold increase over or percent reduction vs vehicle control: 1.08 ± 0.12 fold or %
  Tlr4 fold increase over or percent reduction vs vehicle control: 1.11 ± 0.05 fold or %
  Tlr6 fold increase over or percent reduction vs vehicle control: 1.04 ± 0.10 fold or %
  Tlr9 fold increase over or percent reduction vs vehicle control: 1.33 ± 0.19 fold or %
  Tnf fold increase over or percent reduction vs vehicle control: 1.84 ± 47.89 fold or %
  Tnfaip3 fold increase over or percent reduction vs vehicle control: 3.01 ± 14.38 fold or %
  Tnfrsf1a fold increase over or percent reduction vs vehicle control: 1.21 ± 0.13 fold or %
  Tnfrsf1b fold increase over or percent reduction vs vehicle control: 1.23 ± 0.12 fold or %
  Tnfrsf10b fold increase over or percent reduction vs vehicle control: 2.61 ± 0.31 fold or %
  Tnfsf10 fold increase over or percent reduction vs vehicle control: 18.51 ± 14.05 fold or %
  Tnfsf14 fold increase over or percent reduction vs vehicle control: 1.11 ± 0.17 fold or %
  Tollip fold increase over or percent reduction vs vehicle control: 1.01 ± 0.06 fold or %
  Tradd fold increase over or percent reduction vs vehicle control: 1.17 ± 0.08 fold or %
  Traf2 fold increase over or percent reduction vs vehicle control: 8.21 ± 7.59 fold or %
  Traf3 fold increase over or percent reduction vs vehicle control: 13.02 ± 10.57 fold or %
  Traf5 fold increase over or percent reduction vs vehicle control: 21.79 ± 2.60 fold or %
  Traf6 fold increase over or percent reduction vs vehicle control: 1.03 ± 0.16 fold or %
  Zap70 fold increase over or percent reduction vs vehicle control: 1.01 ± 0.07 fold or %
150 mg/kg BIDx1, 48 h
  Agt fold increase over or percent reduction vs vehicle control: 1.60 ± 0.41 fold or %
  Akt1 fold increase over or percent reduction vs vehicle control: 4.50 ± 1.92 fold or %
  Atf1 fold increase over or percent reduction vs vehicle control: 42.46 ± 1.99 fold or %
  Atf2 fold increase over or percent reduction vs vehicle control: 30.02 ± 3.86 fold or %
